Results reported in US20240261296A1, “THERAPEUTIC MODALITIES FOR INHIBITING PANCREATIC BETA CELL IMPAIRMENT AND TREATING DIABETES” (Hadasit Medical Research Serices & Development Ltd., priority 2021, published 2024).
Entries after “also recorded” stand apart in the source; their conditions may differ.

Tests used:
MIN6 cells = test: Caspase 3/7 enzymatic activity in palmitic acid-treated MIN6 cells; type: cell-based, murine; details: 250 nM, 24 h
Experimental: Next, the ability of the compounds to rescue human islet cells from palmitate-induced apoptosis was determined. To this end, the Caspase-Glo 3/7 assay reagent (Promega) was used for caspase 3/7 detection in palmitic acid-treated cells. The reagent provides a proluminescent caspase-3/7 substrate, which contains the tetrapeptide sequence DEVD, in combination with luciferase and a cell-lysing agent. The addition of the reagent directly to the wells results in cell lysis, followed by caspase cleavage of the DEVD substrate, and the generation of luminescence.
Following the initial screening results, compounds C13 and C5 were tested at different doses for their ability to reduce palmitate-induced apoptosis. To this end, MIN6 cells were exposed to 250 nM of the tested compounds in the presence of palmitic acid (PA) for 24 h, or to PA alone. Caspase 3/7 enzymatic activity was measured as described in Example 3, and the results, presented in FIG. 4 represent the average ±SEM of triplicates or quadruplicates.

C57Bl/6 mice = test: acute toxicity, IP and oral; type: in vivo; details: for physical or behavioral differences: IP 3 mg/kg or gavage total 9 mg/kg; for differences between experimental groups and saline/DMSO control mice (summary): IP 3 mg/kg/mouse or gavage 9 mg/kg/mouse
Experimental: The safety of compounds C5 and C13 was examined in various in vivo settings, and compared to that of L-798106. The compounds were administered by oral gavage or intraperitoneal (IP) injection to C57Bl/6 mice, and acute toxicity, liver and kidney functions and blood glucose and insulin levels were evaluated. Additional safety experiments and measurements of various blood parameters in diabetic mice are further presented in Example 12 below.
Acute toxicity—IP and oral. For acute toxicity studies, a single IP dose of 3 mg/kg, or three oral doses (total of 9 mg/Kg) were administered. No mortality was observed by the end of the monitoring period (two days for IP administration or four days for oral administration), and all animals survived both modes of administration. No physical or behavioral differences were observed between the different groups and between the two modes of drug administration. Pictures of the sites of IP injection were taken when animals were sacrificed and no damage was observed.
(§1) Male mice (n=8 per group) were assigned to the following test groups. A dosage of 3 mg/kg/mouse was administered daily for 3 consecutive days in 200 μl of:
(§2) Group A: saline and DMSO carrier (referred to throughout the drawings and examples describing the in vivo experiment as “Control-Saline”, “Vehicle”, “Saline” or “Control”), at the equivalent concentration administered the other test groups (2.5%). Group B: Compound 1b (C5) at 3 mg/Kg: (total of 9 mg/Kg). Group C: Compound 1a (C13) at 3 mg/Kg: (total of 9 mg/Kg). Group D: L-798106 at 3 mg/Kg: (total of 9 mg/Kg).

[1] = glycemia evaluation in C57Bl/6 mice; type: in vivo; details: for blood glucose concentration: IP 3 mg/kg, t0, 5 h, 24 h; for blood glucose concentrations: oral gavage 3 mg/kg/day for 3 days, t0, 5 h after each gavage, 24 h after last
Experimental: as §1, §2
A. For glycemia evaluation, blood glucose was measured from the vein tail at the following time points (t(h)—time in hours): t=0—before gavage; t=5 h—following each gavage on days 1, 2 and 3 (5G1, 5G2 and 5G3, respectively); and t=24 h—after the last gavage (24G3).
A. Glycemia evaluation: Glucose concentration was measured in blood obtained from the vein tail of C57Bl/6 mice (n=12/group). Results are represented in FIGS. 13A-13D, in which, t(h) represents time in hours as follows: before injection (t0), at time 5 h (t5) and 24 h (t24) after injection of 200 μl saline/DMSO (FIG. 13A); of 3 mg/kg of C5 (FIG. 13B); C13 (FIG. 13C); or L-798106 (FIG. 13D), by using Accu-Chek performa glucometer.

[2] = blood insulin levels in C57Bl/6 mice (ELISA); type: in vivo
Experimental: B. For measurements of blood insulin levels, insulin was measured in blood obtained from the vein tail of C57Bl/6 mice (n=8/group) 24 h (t24) after the third gavage with vehicle (Control-Saline); 3 mg/kg/day Compound C5; Compound C13 or the EP3 antagonist L-798106 (total 9 mg/kg) using ELISA mouse insulin kit (Mercodia). Five samples randomly chosen from each group were measured.
B. Blood insulin levels: Insulin was measured in sera obtained from mice injected with either Saline/DMSO (control), Compound 5 (C5); Compound C13 (C13) or L-798106, using ELISA mouse insulin kit according to the manufacturer's instructions (Mercodia). Five samples randomly chosen from each group were measured. […] Similarly, to normal blood glucose, the mice keep their blood insulin concentrations within the normal range.

db/db mice = test: intraperitoneal glucose tolerance test (IPGTT); type: in vivo
Experimental: Lepr^db/db homozygotes (db/db) and heterozygote Lepr^db/+ (wild type) mice were treated daily with 2.5 mg/kg/day oral administration of the Vehicle, the commercial EP3 antagonist L-798106 and the compounds C5 and C13 for 8 weeks, as described in Example 9. A glucose tolerance test (Intraperitoneal glucose tolerance test, IPGTT) was performed following four weeks and eight weeks of the onset of treatment, as follows. Glucose (1 g/kg) was injected following 8 hours of fasting, and blood glucose was measured at baseline and at 30-, 60-, 90- and 120-minutes post glucose administration.
Heterozygote (wild type) and diabetic db/db mice were treated daily with the Vehicle, L-798106 and the compounds C17 and C20 for 8 weeks, essentially as described in Example 9. A glucose tolerance test (IPGTT) was performed essentially as described in Example 10.

[3] = oral 3 mg/kg/day (total 9 mg/kg), 24 h after third gavage
[4] = 8 weeks oral 2.5 mg/kg/day, glucose 1 g/kg, all time points, vs vehicle

With `CC[C@H](C)c1ccc(S(=O)(=O)Nc2ccccc2C(=O)N2C[C@@H](C)O[C@@H](C)C2)cc1` [Compound C5, 4-((S)-sec-butyl)-N-(2-((2S,6R)-2,6-dimethylmorpholine-4-carbonyl)phenyl)benzenesulfonamide] the “palmitate-induced apoptosis (caspase 3/7 activity)” value (MIN6 cells) was “significantly reduced”, the “physical or behavioral differences” value (C57Bl/6 mice) was “No physical or clinical behavioral differences” and the “differences between experimental groups and saline/DMSO control mice (summary)” value (C57Bl/6 mice) was “no significant differences were observed”. The blood glucose concentration [1] was “no differences were observed”, the blood glucose concentrations [1] was “no significant alterations” and the blood insulin levels ([2]; IP single dose 3 mg/kg) was “no statistically significant differences”. For the same molecule, the blood insulin levels [2, 3] was “no statistically significant differences”, the “hyperglycemia in IPGTT, db/db mice” value (db/db mice; [4]) was “significantly alleviated hyperglycemia” and the “hyperglycemia in IPGTT, db/db mice” value (db/db mice; four weeks of treatment) was “reduction of hyperglycemia could already be seen”.
In the case of `CC[C@@H]1CC[C@H](C)N1C(=O)c1cccc(NS(=O)(=O)c2ccc(C)c(F)c2)c1` [Compound C13, N-(3-((2R,5S)-2-ethyl-5-methylpyrrolidine-1-carbonyl)phenyl)-3-fluoro-4-methylbenzenesulfonamide], the “palmitate-induced apoptosis (caspase 3/7 activity)” value (MIN6 cells) is reported as “significantly reduced”, the “physical or behavioral differences” value (C57Bl/6 mice) is reported as “No physical or clinical behavioral differences” and the “differences between experimental groups and saline/DMSO control mice (summary)” value (C57Bl/6 mice) is reported as “no significant differences were observed”. The blood glucose concentration [1] was “no differences were observed”, the blood glucose concentrations [1] was “no significant alterations” and the blood insulin levels ([2]; IP single dose 3 mg/kg) was “no statistically significant differences”. For the same molecule, the blood insulin levels [2, 3] was “no statistically significant differences”, the “hyperglycemia in IPGTT, db/db mice” value (db/db mice; [4]) was “significantly alleviated hyperglycemia” and the “hyperglycemia in IPGTT, db/db mice” value (db/db mice; four weeks of treatment) was “reduction of hyperglycemia could already be seen”.
In the case of `COc1ccc(Br)cc1S(=O)(=O)NC(=O)/C=C/c1ccccc1Cc1ccc2ccccc2c1` [Compound L-798106, (2E)-N-[(5-bromo-2-methoxyphenyl)sulfonyl]-3-[2-(2-naphthalenylmethyl)phenyl]-2-propenamide, reference compound], the “physical or behavioral differences” value (C57Bl/6 mice) is reported as “No physical or clinical behavioral differences”, the “differences between experimental groups and saline/DMSO control mice (summary)” value (C57Bl/6 mice) is reported as “no significant differences were observed” and the blood glucose concentration [1] is reported as “no differences were observed”. The blood glucose concentrations [1] was “no significant alterations”, the blood insulin levels ([2]; IP single dose 3 mg/kg) was “no statistically significant differences” and the blood insulin levels [2, 3] was “no statistically significant differences”. For the same molecule, the “hyperglycemia in IPGTT, db/db mice” value (db/db mice; 8 weeks oral 2.5 mg/kg/day, glucose 1 g/kg, all time points, vs vehicle, 2.5 mg/kg/day) was “significantly alleviated hyperglycemia; also recorded: appeared to be statistically more significant” and the “hyperglycemia in IPGTT, db/db mice” value (db/db mice; four weeks of treatment) was “reduction of hyperglycemia could already be seen”.
